Data on one molecule can be found in US11011273B2, “Pathway analysis for identification of diagnostic tests” (Nantomics, LLC, priority 2013, dated 2021).

Holding throughout (assay type): cell-based
Experiment [1] relates to NCIH23. Description: Treatment effectiveness (GI50) on cell line NCIH23. As to conditions: Homo sapiens, NCI-H23; data point 240, FIG. 2; read-out: sensitivity class from GI50 treatment effectiveness value. From the text: (§1) There are many ways to derive and measure treatment effectiveness data 136 for a particular treatment. For example, effectiveness data can be derived by administering the evaluated treatment to each and every diseased cell line, and measure the effect of the evaluated treatment on each diseased cell line. The measurement can be based on an amount of drug needed to obtain a threshold inhibition effect of the disease in the cell line (e.g., the amount of drug needed to reduce the activities of the disease by half).
(§2) FIG. 2 illustrates a graph 200 showing a graphical representation of an example set of treatment effectiveness data 136 that represents how effective NANT3456 is on a set of cell lines. NANT3456 is described in more detail in WO/2014/071378, published May 8, 2014, which is incorporated by reference herein. In some embodiments, the data points on FIG. 2 represent distinct cell lines from different tissues, distinct cell lines from the same tissue, or any combination thereof. Further, the cell lines may be derived from a single host, multiple distinct hosts, or any combination. In this example, NANT3456 is known to be capable of treating diseases associated with the set of cell lines (e.g., cell lines MV411, TT, AN3CA, K562, PC3, HCT116, ASPC1, MDAMB231, TF1, NCIH23, MIAPACA2, HS766T, CAPAN2, A549, HT29, U937, BXPC3, CAPAN1, and SU8686). […]

Experiment [2] concerns cell line TT. Description: Treatment effectiveness (GI50) on cell line TT. As to conditions: data point 230, FIG. 2; read-out: sensitivity class from GI50 treatment effectiveness value.
Source text: as §1, §2

In experiment [3] the test system is cell line CAPAN1. Description: Treatment effectiveness (GI50) on cell line CAPAN1. As to conditions: Homo sapiens, CAPAN-1; data point 250, FIG. 2; read-out: sensitivity class from GI50 treatment effectiveness value.
Source text: as §1, §2

The test system of experiment [4] is cell line MV411. Description: Treatment effectiveness (GI50) on cell line MV411. The following applies: Homo sapiens, MV4-11; data point 225, FIG. 2; read-out: sensitivity class from GI50 treatment effectiveness value.
Source text: as §1, §2

Experiment [5] relates to cell line PC3. Description: Treatment effectiveness (GI50) on cell line PC3. The following applies: data point 235, FIG. 2; read-out: sensitivity class from GI50 treatment effectiveness value.
Source text: as §1, §2

Experiment [6] concerns set of cell lines (MV411, TT, AN3CA, K562, PC3, HCT116, ASPC1, MDAMB231, TF1, NCIH23, MIAPACA2, HS766T, CAPAN2, A549, HT29, U937, BXPC3, CAPAN1, SU8686). Description: Treatment effectiveness (GI50) of NANT3456 on a set of cell lines. The following applies: median over all cell lines of FIG. 2; dotted line 220.
Source text: as §1, §2

Experiment [7] concerns cell line HT29. Description: Treatment effectiveness (GI50) on cell line HT29. The following applies: Homo sapiens, HT-29; data point 245, FIG. 2; read-out: sensitivity class from GI50 treatment effectiveness value.
Source text: as §1, §2

Molecules are shown by their SMILES.

What is called GI50 is the concentration giving 50% growth inhibition. Turning to `C/C=C/c1cc(Nc2cc(N3CCN(C)CC3)nc(Oc3cc(F)c4[nH]c(C)cc4c3F)n2)n[nH]1` [NANT3456], the GI50 in experiment [1] was over 50.1 nM; in experiment [2] it was under 50.1 nM; in experiment [3], over 50.1 nM; in experiment [4], under 50.1 nM; in experiment [5] it was under 50.1 nM. Also, the “threshold effectiveness value (median value of all treatment effectiveness values, GI50)” value in experiment [6] is 1.7 log10 units of nanomolar drug. Further, the GI50 sensitivity class in experiment [7] is over 50.1 nM.
